Experimental data reported in patent US9642829B2, “Antifungal compound and uses thereof” (The University of Hong Kong, priority 2012, dated 2017).

What was measured:
[1] = tested on: C. albicans drug resistant isolate; test: Susceptibility of multidrug resistant clinical isolates, CLSI M27A broth microdilution; assay type: cell-based, Candida albicans; conditions: C. albicans T1675; resistant to Fluconazole, Itraconazole
From the text: (§1) Oral Biosciences laboratory has one of the largest collections of fungal isolates, particular that of Candida species in the world. In our previous studies, we have found multidrug resistant clinical isolates of Candida species against existing antifungals. In particular, some of these strains are resistant to best antifungal agents to date such as caspofungin, amphotericin B and fluconazole. Therefore, we performed antifungal susceptibility testing for SM21 against these drug resistant Candida isolates suing CLSI M27A brothmicrodultion assay and CLSI M44-A disc diffusion assay.

C. tropicalis = test: Antifungal susceptibility (MIC/MFC), CLSI criteria; assay type: cell-based, Candida tropicalis; conditions: C. tropicalis ATCC; 0.5 McFarland inoculum (10^6 cells/ml)
Protocol: (§2) Antifungal activity of the small molecules was evaluated using USA standards, Clinical and Laboratory Standards Institute (CLSI) criteria. In brief, inocula from 24 h Candida cultures on Sabourauds's dextore agar were standardized to a turbidity equivalent of 0.5 McFarland standards at 520 nm with a spectrophotometer. The suspensions were further diluted in Rosewell Park Memorial Institute (RPMI) 1640 medium (Life technologies, New York, USA) to yield an inoculum concentration of approximately 0.5 1×10^3 to 2.5 1×10^3 cells/ml. Minimum inhibitory concentration (MIC) and minimum fungicidal concentration (MFC) assay was performed in 96-well plates (Iwaki, Tokyo, Japan) and each of the Candida species was exposed to a double dilution of SM21. Amphotericin B was used as a positive control. All the experiments were preformed three occasions with duplicates for all isolates. The plates were incubated at 35° C. for 48 h to evaluate MIC. In the case of Cryotococcus neoformans, reading were taken after 72 h. Aforementioned assay was performed for C. albicans ATCC 90028, C. albicans SC5314 and 10 C. albicans clinical isolates. Moreover, MIC/MFC determination was carried out for other fungal species such as C. glabrata, C. krusei, C. tropicalis, C. parapsilosis, C. neoformans, Aspergillus fumigates and Penicillium marneffei. […]

[2] = tested on: C. glabrata drug resistant isolates; test: Susceptibility of multidrug resistant clinical isolates, CLSI M27A broth microdilution; assay type: cell-based, Candida glabrata
From the text: as §1

C. albicans [3] = test: Dose-dependent assay of MIC/MFC at different cell densities; assay type: cell-based, Candida albicans; parameters: unit not given here
Protocol: Antifungal activity of the small molecules was evaluated using USA standards, Clinical and Laboratory Standards Institute (CLSI) criteria. In brief, inocula from 24 h Candida cultures on Sabourauds's dextore agar were standardized to a turbidity equivalent of 0.5 McFarland standards at 520 nm with a spectrophotometer. The suspensions were further diluted in Rosewell Park Memorial Institute (RPMI) 1640 medium (Life technologies, New York, USA) to yield an inoculum concentration of approximately 0.5 1×10^3 to 2.5 1×10^3 cells/ml. Minimum inhibitory concentration (MIC) and minimum fungicidal concentration (MFC) assay was performed in 96-well plates (Iwaki, Tokyo, Japan) and each of the Candida species was exposed to a double dilution of SM21. Amphotericin B was used as a positive control. All the experiments were preformed three occasions with duplicates for all isolates. The plates were incubated at 35° C. for 48 h to evaluate MIC. In the case of Cryotococcus neoformans, reading were taken after 72 h. Aforementioned assay was performed for C. albicans ATCC 90028, C. albicans SC5314 and 10 C. albicans clinical isolates. Moreover, MIC/MFC determination was carried out for other fungal species such as C. glabrata, C. krusei, C. tropicalis, C. parapsilosis, C. neoformans, Aspergillus fumigates and Penicillium marneffei. […] Next using dose-dependent assay we tested that MIC/MFC of SM21 from 10^3 cells/ml to 10^7 cells/ml of C. albicans (Table 2). Each of the foregoing experiment was repeated on three different occasions.

C. neoformans = test: Antifungal susceptibility (MIC/MFC), CLSI criteria, reading after 72 h; assay type: cell-based, Cryptococcus neoformans; conditions: 0.5 McFarland inoculum (10^6 cells/ml)
Protocol: as §2

C. albicans [4] = test: Yeast-to-hypha (Y-H) transition inhibition under strong hyphal inducing conditions; assay type: cell-based, Candida albicans; parameters: Y-Hi (yeast-to-hypha inhibitory activity): unit: μg/ml
From the text: A large collection of small molecule library was screened in search of inhibitors of yeast-to-hypha transition (Y—H) of C. albicans using 384-well plate-high throughout assays (HTS). […] After subsequent studies with robust Y—H inducing conditions, we herein report a novel small molecule SM21 (FIG. 1) with strong Y-Hi activity and antifungal-activity.
Several environmental conditions which are known to induce the hyphal formation of C. albicans such as serum, Lee's medium, Spider medium, temperature and 37° C. were used to test the ability of SM21 to inhibit Y—H transition. […] SM21 could act as a Y-Hi at a lower concentration of 0.025 μg/ml and 0.0.5 μg/ml for 10^4 cells/ml and 10^6 cells/ml of C. albicans, respectively. Chemical structure of SM21 is shown in (F)

[5] = In vivo safety in mouse model; conditions: 200 μg (100 times the effective dose of 2 μg) twice a day for five days
Protocol: Next, we used mouse model and treated the animals with 100 times of the effective dose (2 μg) i.e. 200 μg of SM21 twice a day for five days.

Streptococcus mutans = test: Antibacterial activity (FIG. 3); assay type: cell-based; conditions: dose of 2 μg
Protocol: (§3) FIGS. 3A-C. Antibacterial activity of SM21 at dose of 2 μg was examined for three bacterial species together with other antifungal agents caspofungin, amphotericin B and chlorhexidine. (A) Lactobacillus acidophilus (B) Streptococcus mutans and (C) Escherichia coli were used for the experiments.
as §1

Escherichia coli = test: Antibacterial activity (FIG. 3); assay type: cell-based; conditions: dose of 2 μg
Protocol: as §3, §1

[6] = tested on: Lactobacillus acidophilus; test: Antibacterial activity (FIG. 3); assay type: cell-based; conditions: dose of 2 μg
Protocol: as §3, §1

Compound: CN(C)c1ccc(/C=C/c2cc(C(C)(C)C)[o+]c(C(C)(C)C)c2)cc1.[O-][Cl+3]([O-])([O-])[O-] [SM21]
- MIC [1]: 0.5 µg/mL
- Susceptibility (MIC90) (C. tropicalis): 0.8 µg/mL
- MIC ([2]; C. glabrata 1570, resistant to Itraconazole): 0.5 µg/mL
- MIC ([2]; C. glabrata T1585, resistant to Fluconazole, Itraconazole, ketoconazole, Voriconazole): 1 µg/mL
- MIC ([2]; C. glabrata T1672, resistant to Itraconazole, Ketaconazole): 0.5 µg/mL
- MIC/MFC (C. albicans [3]; C. albicans 10^4 cells/ml): 0.1
- MIC/MFC (C. albicans [3]; C. albicans 10^5 cells/ml): 0.1
- MIC/MFC (C. albicans [3]; C. albicans 10^6 cells/ml): 0.2
- MIC/MFC (C. albicans [3]; C. albicans 10^7 cells/ml): 0.6
- Susceptibility (MIC90) (C. neoformans): 0.4 µg/mL
- Concentration acting as Y-Hi (C. albicans [4]; 10^4 cells/ml of C. albicans): 0.025 µg/mL
- Y-Hi (yeast-to-hypha inhibitory activity) (C. albicans [4]; C. albicans 10^4 cells/ml): 0.025
- Y-Hi (yeast-to-hypha inhibitory activity) (C. albicans [4]; C. albicans 10^5 cells/ml): 0.5
- Y-Hi (yeast-to-hypha inhibitory activity) (C. albicans [4]; C. albicans 10^6 cells/ml): 0.1
- Y-Hi (yeast-to-hypha inhibitory activity) (C. albicans [4]; C. albicans 10^7 cells/ml): 0.2
- Morphology of C. albicans under hyphal inducing conditions (C. albicans [4]; incubated with SM21 at Y-Hi concentration, serum, Lee's medium, Spider medium, 37° C.): yeast morphology
- Detrimental effect in terms of weight reduction and side effects [5]: did not show any detrimental effect
- Antibacterial activity (Streptococcus mutans): not anti-bacterial
- Antibacterial activity (Escherichia coli): not anti-bacterial
- Antibacterial activity [6]: not anti-bacterial
